Results published in PubChem BioAssay (NCI).
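The concentration for 50% growth inhibition is given as GI50. TGI is the concentration that stops growth completely.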

Tests used:
Assay in all cases: NCI anticancer screen, dose series, 384-well format
MDA-MB-468 breast = test system: MDA-MB-468 breast
SNB-19 CNS = test system: SNB-19 CNS
TK-10 renal = test system: TK-10 renal
CAKI-1 renal = test system: CAKI-1 renal
SK-MEL-28 melanoma = test system: SK-MEL-28 melanoma
OVCAR-3 ovarian = test system: OVCAR-3 ovarian
SK-OV-3 ovarian = test system: SK-OV-3 ovarian
COLO 205 colon = test system: COLO 205 colon
HL-60(TB) leukemia = test system: HL-60(TB) leukemia
NCI/ADR-RES ovarian = test system: NCI/ADR-RES ovarian
A498 renal = test system: A498 renal
HOP-62 NSCLC = test system: HOP-62 NSCLC
LOX IMVI melanoma = test system: LOX IMVI melanoma
T-47D breast = test system: T-47D breast
SF-539 CNS = test system: SF-539 CNS
U251 glioblastoma = test system: U251 glioblastoma
SK-MEL-2 melanoma = test system: SK-MEL-2 melanoma
UACC-62 melanoma = test system: UACC-62 melanoma
OVCAR-8 ovarian = test system: OVCAR-8 ovarian
NCI-H460 NSCLC = test system: NCI-H460 NSCLC
NCI-H322M lung = test system: NCI-H322M lung
UO-31 renal = test system: UO-31 renal
MDA-MB-435 melanoma = test system: MDA-MB-435 melanoma
SK-MEL-5 melanoma = test system: SK-MEL-5 melanoma
NCI-H23 lung = test system: NCI-H23 lung
MCF7 breast = test system: MCF7 breast
MOLT-4 leukemia = test system: MOLT-4 leukemia
CCRF-CEM leukemia = test system: CCRF-CEM leukemia
ACHN renal = test system: ACHN renal
KM12 colon = test system: KM12 colon
SNB-75 CNS = test system: SNB-75 CNS
DU-145 prostate = test system: DU-145 prostate
K-562 leukemia = test system: K-562 leukemia
EKVX NSCLC = test system: EKVX NSCLC
NCI-H226 lung = test system: NCI-H226 lung
786-0 renal = test system: 786-0 renal
SW-620 colon = test system: SW-620 colon
SF-268 CNS = test system: SF-268 CNS
SF-295 CNS = test system: SF-295 CNS
SN12C renal = test system: SN12C renal
RXF 393 renal = test system: RXF 393 renal
HCT-15 colon = test system: HCT-15 colon
BT-549 breast = test system: BT-549 breast
OVCAR-4 ovarian = test system: OVCAR-4 ovarian
HOP-92 NSCLC = test system: HOP-92 NSCLC
HCT-116 colon = test system: HCT-116 colon
IGROV1 ovarian = test system: IGROV1 ovarian
MDA-MB-231 breast = test system: MDA-MB-231 breast
OVCAR-5 ovarian = test system: OVCAR-5 ovarian
UACC-257 melanoma = test system: UACC-257 melanoma
PC-3 prostate = test system: PC-3 prostate
A549 NSCLC = test system: A549 NSCLC
NCI-H522 lung = test system: NCI-H522 lung
SR leukemia = test system: SR leukemia
HT29 colon = test system: HT29 colon
RPMI-8226 leukemia = test system: RPMI-8226 leukemia
HCC-2998 colon = test system: HCC-2998 colon
M14 melanoma = test system: M14 melanoma
MALME-3M melanoma = test system: MALME-3M melanoma

`CC(C)(C[C@H]1CN(S(=O)(=O)c2cccc(C(F)(F)F)c2)c2cc(-c3cc(F)cc(OC(F)F)c3)ccc2O1)C(=O)O` gave a GI50 (MDA-MB-468 breast) of 2660 nM, a TGI (MDA-MB-468 breast) of 7.31 µM and a GI50 (SNB-19 CNS) of 8.54 µM. The TGI (SNB-19 CNS) was 20.5 µM, the GI50 (TK-10 renal) was 10.6 µM and the TGI (TK-10 renal) was 23.1 µM. It also gave a GI50 (CAKI-1 renal) of 6.92 µM, a TGI (CAKI-1 renal) of 19 µM and a GI50 (SK-MEL-28 melanoma) of 7.37 µM. The TGI (SK-MEL-28 melanoma) was 20.1 µM, the GI50 (OVCAR-3 ovarian) was 2460 nM and the TGI (OVCAR-3 ovarian) was 7.45 µM. For the same molecule, the GI50 (SK-OV-3 ovarian) was 9.09 µM, the TGI (SK-OV-3 ovarian) was 21.4 µM and the GI50 (COLO 205 colon) was 5.83 µM. It also gave a TGI (COLO 205 colon) of 15.3 µM, a GI50 (HL-60(TB) leukemia) of 2740 nM and a TGI (HL-60(TB) leukemia) of 4.91 µM. It also gave a GI50 (NCI/ADR-RES ovarian) of 2520 nM, a TGI (NCI/ADR-RES ovarian) of 7.17 µM and a GI50 (A498 renal) of 4.35 µM. For the same molecule, the TGI (A498 renal) was 15.5 µM, the GI50 (HOP-62 NSCLC) was 4.81 µM and the TGI (HOP-62 NSCLC) was 16.7 µM. It also gave a GI50 (LOX IMVI melanoma) of 12.8 µM, a TGI (LOX IMVI melanoma) of 25.4 µM and a GI50 (T-47D breast) of 5.89 µM. The TGI (T-47D breast) was 18.9 µM, the GI50 (SF-539 CNS) was 6 µM and the TGI (SF-539 CNS) was 18.4 µM. The GI50 (U251 glioblastoma) was 7.65 µM, the TGI (U251 glioblastoma) was 20.2 µM and the GI50 (SK-MEL-2 melanoma) was 2730 nM. It also gave a TGI (SK-MEL-2 melanoma) of 7.34 µM, a GI50 (UACC-62 melanoma) of 3.84 µM and a TGI (UACC-62 melanoma) of 13.6 µM. It also gave a GI50 (OVCAR-8 ovarian) of 9.79 µM, a TGI (OVCAR-8 ovarian) of 22.1 µM and a GI50 (NCI-H460 NSCLC) of 4.04 µM. The TGI (NCI-H460 NSCLC) was 13 µM, the GI50 (NCI-H322M lung) was 12.6 µM and the TGI (NCI-H322M lung) was 25.6 µM. For the same molecule, the GI50 (UO-31 renal) was 10.5 µM, the TGI (UO-31 renal) was 22.3 µM and the GI50 (MDA-MB-435 melanoma) was 2040 nM. The TGI (MDA-MB-435 melanoma) was 4.48 µM, the GI50 (SK-MEL-5 melanoma) was 3.86 µM and the TGI (SK-MEL-5 melanoma) was 13.5 µM. For the same molecule, the GI50 (NCI-H23 lung) was 3.38 µM, the TGI (NCI-H23 lung) was 10.7 µM and the GI50 (MCF7 breast) was 4.82 µM. The TGI (MCF7 breast) was 17.2 µM, the GI50 (MOLT-4 leukemia) was 3.11 µM and the TGI (MOLT-4 leukemia) was 8.3 µM. The GI50 (CCRF-CEM leukemia) was 6.52 µM, the TGI (CCRF-CEM leukemia) was 18.4 µM and the GI50 (ACHN renal) was 13.4 µM. For the same molecule, the TGI (ACHN renal) was 26.7 µM, the GI50 (KM12 colon) was 4.06 µM and the TGI (KM12 colon) was 14.4 µM. It also gave a GI50 (SNB-75 CNS) of 17.4 µM, a TGI (SNB-75 CNS) of 31.2 µM and a GI50 (DU-145 prostate) of 10.1 µM. The TGI (DU-145 prostate) was 21.9 µM, the GI50 (K-562 leukemia) was 3.18 µM and the TGI (K-562 leukemia) was 12.1 µM. It also gave a GI50 (EKVX NSCLC) of 10.7 µM, a TGI (EKVX NSCLC) of 22.8 µM and a GI50 (NCI-H226 lung) of 8.64 µM. It also gave a TGI (NCI-H226 lung) of 22 µM, a GI50 ([…]-0 renal) of 9.51 µM and a TGI (786-0 renal) of 22.8 µM. For the same molecule, the GI50 (SW-620 colon) was 2920 nM, the TGI (SW-620 colon) was 7.59 µM and the GI50 (SF-268 CNS) was 9.85 µM. For the same molecule, the TGI (SF-268 CNS) was 22.6 µM, the GI50 (SF-295 CNS) was 3.02 µM and the TGI (SF-295 CNS) was 10.3 µM. For the same molecule, the GI50 (SN12C renal) was 10.3 µM, the TGI (SN12C renal) was 22.4 µM and the GI50 (RXF 393 renal) was 4.02 µM. For the same molecule, the TGI (RXF 393 renal) was 11.1 µM, the GI50 (HCT-15 colon) was 4.15 µM and the TGI (HCT-15 colon) was 14.1 µM. The GI50 (BT-549 breast) was 2800 nM, the TGI (BT-549 breast) was 9.11 µM and the GI50 (OVCAR-4 ovarian) was 9.12 µM. The TGI (OVCAR-4 ovarian) was 21.5 µM, the GI50 (HOP-92 NSCLC) was 7.09 µM and the TGI (HOP-92 NSCLC) was 20 µM. It also gave a GI50 (HCT-116 colon) of 7.93 µM, a TGI (HCT-116 colon) of 20.5 µM and a GI50 (IGROV1 ovarian) of 7.94 µM. It also gave a TGI (IGROV1 ovarian) of 20.9 µM, a GI50 (MDA-MB-231 breast) of 8.82 µM and a TGI (MDA-MB-231 breast) of 21.4 µM. For the same molecule, the GI50 (OVCAR-5 ovarian) was 16.3 µM, the TGI (OVCAR-5 ovarian) was 29.9 µM and the GI50 (UACC-257 melanoma) was 8.84 µM. It also gave a TGI (UACC-257 melanoma) of 23.2 µM, a GI50 (PC-3 prostate) of 8.44 µM and a TGI (PC-3 prostate) of 20.8 µM. The GI50 (A549 NSCLC) was 4.28 µM, the TGI (A549 NSCLC) was 15.5 µM and the GI50 (NCI-H522 lung) was 2660 nM. It also gave a TGI (NCI-H522 lung) of 7.35 µM, a GI50 (SR leukemia) of 1510 nM and a TGI (SR leukemia) of 2900 nM. It also gave a GI50 (HT29 colon) of 3.97 µM, a TGI (HT29 colon) of 13.6 µM and a GI50 (RPMI-8226 leukemia) of 2780 nM. For the same molecule, the TGI (RPMI-8226 leukemia) was 6.15 µM, the GI50 (HCC-2998 colon) was 6.63 µM and the TGI (HCC-2998 colon) was 20.7 µM. It also gave a GI50 (M14 melanoma) of 4.53 µM, a TGI (M14 melanoma) of 15.3 µM and a GI50 (MALME-3M melanoma) of 11.5 µM. For the same molecule, the TGI (MALME-3M melanoma) was 24.5 µM.
